From PubChem BioAssay AID250 (DTP/NCI, 2004)
Where “and” joins values, the source holds several entries; their conditions need not be identical. Equal values may be shown once. Toxic doses and inconclusive results are not listed.

System: BDF1 mice, L1210 leukemia sc, survival T/C
Assay: NCI In Vivo Anticancer Drug Screen. Data for tumor model L1210 Leukemia (subcutaneous) in B6D2F1 (BDF1) mice
Settings: endpoint: median survival time, higher = longer survival
Procedure: The antitumor activity of compounds was measured in mice bearing transplantable tumors. Survival or tumor size were measured and the results are expressed as the measurement made in the treated group (T) divided by the measurement made in the vehicle treated control group (C). The tumor model used in this assay is L1210 Leukemia (subcutaneous) in B6D2F1 (BDF1) mice

[1] = dose: 3.0 mg/kg/injection, schedule: Q01DX Z (sc), vehicle: methylcellulose (MC)
[2] = dose: 8.4 mg/kg/injection, schedule: Q01DX Z (sc), vehicle: methylcellulose (MC)
[3] = dose: 14.0 mg/kg/injection, schedule: Q01DX Z (sc), vehicle: methylcellulose (MC)
[4] = dose: 23.0 mg/kg/injection, schedule: Q01DX Z (sc), vehicle: methylcellulose (MC)
[5] = dose: 39.0 mg/kg/injection, schedule: Q01DX Z (sc), vehicle: methylcellulose (MC)
[6] = dose: 65.0 mg/kg/injection, schedule: Q01DX Z (sc), vehicle: methylcellulose (MC)
[7] = dose: 108.0 mg/kg/injection, schedule: Q01DX Z (sc), vehicle: methylcellulose (MC)
[8] = dose: 180.0 mg/kg/injection, schedule: Q01DX Z (sc), vehicle: methylcellulose (MC)
[9] = dose: 300.0 mg/kg/injection, schedule: Q01DX Z (sc), vehicle: methylcellulose (MC)

SMILES: Nc1n[nH]c(N)n1
- T/C (dose: 125.0 mg/kg/injection, schedule: Q03HX024 (sc), vehicle: none): 110 % of control
- T/C (dose: 180.0 mg/kg/injection, schedule: Q03HX024 (ip), vehicle: water): 116 % of control
- T/C (dose: 180.0 mg/kg/injection, schedule: Q03HX024 (sc), vehicle: water): 122 % of control
- T/C (dose: 250.0 mg/kg/injection, schedule: Q03HX024 (sc), vehicle: none): 120 % of control
- T/C (dose: 250.0 mg/kg/injection, schedule: Q#A X018 (sc), vehicle: none): 120 % of control
- T/C (dose: 432.0 mg/kg/injection, schedule: Q01DX Z (sc), vehicle: water): 104 % of control
- T/C (dose: 500.0 mg/kg/injection, schedule: Q03HX024 (ip), vehicle: water): 177 % of control
- T/C (dose: 500.0 mg/kg/injection, schedule: Q03HX024 (sc), vehicle: water): 166 % of control
- T/C (dose: 500.0 mg/kg/injection, schedule: Q04DX003 (sc), vehicle: none): 110 % of control
- T/C (dose: 500.0 mg/kg/injection, schedule: Q#A X018 (sc), vehicle: none): 160 % of control
- T/C (dose: 720.0 mg/kg/injection, schedule: Q01DX Z (sc), vehicle: water): 109 % of control
- T/C (dose: 1000.0 mg/kg/injection, schedule: Q03HX024 (sc), vehicle: none): 110 % of control
- T/C (dose: 1000.0 mg/kg/injection, schedule: Q04DX003 (sc), vehicle: none): 110 % of control
- T/C (dose: 1000.0 mg/kg/injection, schedule: Q08DX009 (sc), vehicle: none): 150 % of control
- T/C (dose: 1000.0 mg/kg/injection, schedule: Q#A X018 (sc), vehicle: none): 100 % of control
- T/C (dose: 2000.0 mg/kg/injection, schedule: Q01DX Z (sc), vehicle: water): 150 % of control
- T/C (dose: 2000.0 mg/kg/injection, schedule: Q04DX003 (sc), vehicle: none): 115 % of control
- T/C (dose: 2000.0 mg/kg/injection, schedule: Q#A X018 (sc), vehicle: none): 90 % of control
- T/C (dose: 4000.0 mg/kg/injection, schedule: Q04DX003 (sc), vehicle: none): 120 % of control
- T/C (dose: 4000.0 mg/kg/injection, schedule: Q08DX009 (sc), vehicle: none): 150 % of control

SMILES: O=C(Nc1ccc(C2=NCCCN2)cc1)c1ccc(C(=O)Nc2ccc(C3=NCCCN3)cc2)cc1
- T/C [1]: 190 % of control
- T/C (dose: 5.0 mg/kg/injection, schedule: Q01DX Z (sc), vehicle: methylcellulose (MC)): 195 % of control
- T/C [2]: 165 % of control
- T/C [3]: 155 % of control
- T/C [4]: 150 % of control

SMILES: CS(=O)(=O)OCC(O)C(O)C(O)C(O)COS(C)(=O)=O (stereo not drawn)
- T/C [2]: 103 % of control
- T/C [3]: 100 % of control
- T/C [4]: 96 % of control
- T/C [5]: 100 % of control
- T/C [6]: 100 % of control
- T/C [7]: 100 % of control
- T/C [8]: 103 % of control
- T/C [9]: 107 % of control
- T/C (dose: 500.0 mg/kg/injection, schedule: Q01DX Z (sc), vehicle: methylcellulose (MC)): 103 % of control

SMILES: C[n+]1c2ccccc2c(Nc2ccc(NS(=O)(=O)CCCCN=C(N)N)cc2)c2ccc(N)cc21
- T/C (dose: 1.5 mg/kg/injection, schedule: Q01DX009 (ip), vehicle: water): 110 % of control
- T/C (dose: 3.0 mg/kg/injection, schedule: Q01DX009 (ip), vehicle: water): 120 % of control
- T/C (dose: 6.0 mg/kg/injection, schedule: Q01DX009 (ip), vehicle: water): 151 % of control
- T/C (dose: 12.0 mg/kg/injection, schedule: Q01DX009 (ip), vehicle: water): 173 % of control

SMILES: CC(C)CSc1nc(N)nc2nc[nH]c12
- T/C [3]: 100 % of control
- T/C [4]: 105 % of control
- T/C [5]: 111 % of control
- T/C [6]: 111 % of control
- T/C [7]: 111 % of control
- T/C [8]: 116 % of control
- T/C [9]: 111 % of control

SMILES: CN(C)c1ccc(/C=C/c2cc[n+](C)c3ccccc23)cc1
- T/C (dose: 0.65 mg/kg/injection, schedule: Q01DX Z (sc), vehicle: methylcellulose (MC)): 109 % of control
- T/C (dose: 1.08 mg/kg/injection, schedule: Q01DX Z (sc), vehicle: methylcellulose (MC)): 109 % of control
- T/C (dose: 1.8 mg/kg/injection, schedule: Q01DX Z (sc), vehicle: methylcellulose (MC)): 109 % of control
- T/C [1]: 109 % of control

SMILES: O=P(N1CCOCC1)(N1CC1)N1CC1
- T/C (dose: 5.0 mg/kg/injection, schedule: Q01DX Z (sc), vehicle: saline): 96 % of control and 110 % of control
- T/C (dose: 8.4 mg/kg/injection, schedule: Q01DX Z (sc), vehicle: saline): 100 % of control and 110 % of control
- T/C (dose: 23.0 mg/kg/injection, schedule: Q01DX Z (sc), vehicle: saline): 160 % of control and 164 % of control
- T/C (dose: 65.0 mg/kg/injection, schedule: Q01DX Z (sc), vehicle: saline): 112 % of control
